Test results from the NIST ThermoML archive (doi:10.1021/je600519p).

Assay: xn = mol fraction of the nth substance listed
Conditions: 101 kPa, Liquid

CC(=O)c1ccccc1 [acetophenone] + CCOC(=O)OCC
Conditions | mass density [kg/m3] | speed of sound [m/s] | viscosity [mPa·s]
293.15 K, x2 = 0.0511 | 1025.19 | 1443 | 1.754
293.15 K, x2 = 0.1014 | 1023.01 | 1405 | 1.688
293.15 K, x2 = 0.1501 | 1020.69 | 1377 | 1.625
293.15 K, x2 = 0.1996 | 1018.39 | 1347 | 1.564
293.15 K, x2 = 0.2465 | 1016.19 | 1322 | 1.507
293.15 K, x2 = 0.3041 | 1013.29 | 1297 | 1.441
293.15 K, x2 = 0.3467 | 1011.15 | 1280 | 1.391
293.15 K, x2 = 0.4001 | 1008.46 | 1265 | 1.329
293.15 K, x2 = 0.4507 | 1005.89 | 1251 | 1.276
293.15 K, x2 = 0.4888 | 1003.9 | 1242 | 1.238
293.15 K, x2 = 0.5506 | 1000.67 | 1231 | 1.174
293.15 K, x2 = 0.6038 | 997.77 | 1222 | 1.122
293.15 K, x2 = 0.6498 | 995.25 | 1218 | 1.079
293.15 K, x2 = 0.7104 | 991.92 | 1215 | 1.025
293.15 K, x2 = 0.7513 | 989.53 | 1213 | 0.989
293.15 K, x2 = 0.8078 | 986.29 | 1210 | 0.941
293.15 K, x2 = 0.8522 | 983.66 | 1208 | 0.906
293.15 K, x2 = 0.8993 | 980.83 | 1207 | 0.869
293.15 K, x2 = 0.9488 | 977.82 | 1206 | 0.833
303.15 K, x2 = 0.0511 | 1016.4 | 1408 | 1.455
303.15 K, x2 = 0.1014 | 1014.09 | 1369 | 1.402
303.15 K, x2 = 0.1501 | 1011.77 | 1339 | 1.352
303.15 K, x2 = 0.1996 | 1009.35 | 1312 | 1.302
303.15 K, x2 = 0.2465 | 1007.04 | 1290 | 1.257
303.15 K, x2 = 0.3041 | 1004.02 | 1265 | 1.203
303.15 K, x2 = 0.3467 | 1001.78 | 1249 | 1.165
303.15 K, x2 = 0.4001 | 998.99 | 1232 | 1.118
303.15 K, x2 = 0.4507 | 996.27 | 1217 | 1.075
303.15 K, x2 = 0.4888 | 994.18 | 1208 | 1.042
303.15 K, x2 = 0.5506 | 990.73 | 1198 | 0.993
303.15 K, x2 = 0.6038 | 987.73 | 1194 | 0.952
303.15 K, x2 = 0.6498 | 985.06 | 1193 | 0.918
303.15 K, x2 = 0.7104 | 981.54 | 1192 | 0.875
303.15 K, x2 = 0.7513 | 979.05 | 1191 | 0.848
303.15 K, x2 = 0.8078 | 975.68 | 1190 | 0.811
303.15 K, x2 = 0.8522 | 972.91 | 1189 | 0.784
303.15 K, x2 = 0.8993 | 969.91 | 1188 | 0.755
303.15 K, x2 = 0.9488 | 966.78 | 1187 | 0.727
313.15 K, x2 = 0.0511 | 1007.58 | 1365 | 1.232
313.15 K, x2 = 0.1014 | 1005.19 | 1326 | 1.188
313.15 K, x2 = 0.1501 | 1002.73 | 1292 | 1.148
313.15 K, x2 = 0.1996 | 1000.2 | 1263 | 1.11
313.15 K, x2 = 0.2465 | 997.78 | 1238 | 1.073
313.15 K, x2 = 0.3041 | 994.63 | 1212 | 1.03
313.15 K, x2 = 0.3467 | 992.31 | 1196 | 0.998
313.15 K, x2 = 0.4001 | 989.35 | 1180 | 0.961
313.15 K, x2 = 0.4507 | 986.55 | 1168 | 0.925
313.15 K, x2 = 0.4888 | 984.35 | 1160 | 0.9
313.15 K, x2 = 0.5506 | 980.71 | 1153 | 0.86
313.15 K, x2 = 0.6038 | 977.48 | 1152 | 0.827
313.15 K, x2 = 0.6498 | 974.69 | 1151 | 0.799
313.15 K, x2 = 0.7104 | 971.04 | 1150 | 0.765
313.15 K, x2 = 0.7513 | 968.47 | 1149 | 0.742
313.15 K, x2 = 0.8078 | 964.89 | 1148 | 0.711
313.15 K, x2 = 0.8522 | 961.99 | 1147 | 0.688
313.15 K, x2 = 0.8993 | 958.99 | 1146 | 0.665
313.15 K, x2 = 0.9488 | 955.63 | 1145 | 0.641
323.15 K, x2 = 0.0511 | 998.79 | 1305 | 1.057
323.15 K, x2 = 0.1014 | 996.27 | 1265 | 1.023
323.15 K, x2 = 0.1501 | 993.68 | 1234 | 0.991
323.15 K, x2 = 0.1996 | 991.08 | 1208 | 0.959
323.15 K, x2 = 0.2465 | 988.56 | 1185 | 0.929
323.15 K, x2 = 0.3041 | 985.24 | 1164 | 0.893
323.15 K, x2 = 0.3467 | 982.8 | 1151 | 0.868
323.15 K, x2 = 0.4001 | 979.74 | 1137 | 0.837
323.15 K, x2 = 0.4507 | 976.77 | 1126 | 0.809
323.15 K, x2 = 0.4888 | 974.49 | 1121 | 0.787
323.15 K, x2 = 0.5506 | 970.76 | 1118 | 0.755
323.15 K, x2 = 0.6038 | 967.47 | 1117 | 0.727
323.15 K, x2 = 0.6498 | 964.54 | 1116 | 0.704
323.15 K, x2 = 0.7104 | 960.63 | 1115 | 0.676
323.15 K, x2 = 0.7513 | 957.86 | 1114 | 0.656
323.15 K, x2 = 0.8078 | 954.13 | 1113 | 0.631
323.15 K, x2 = 0.8522 | 951.07 | 1112 | 0.612
323.15 K, x2 = 0.8993 | 947.76 | 1111 | 0.592
323.15 K, x2 = 0.9488 | 944.32 | 1110 | 0.573
